Test results published in ChEMBL document CHEMBL2331237, “Amides of 4-hydroxy-8-methanesulfonylamino-quinoline-2-carboxylic acid as zinc-dependent inhibitors of Lp-PLA₂” (Bioorg Med Chem Lett, 2013).

These compounds were tested against T1, Platelet-activating factor acetylhydrolase (Homo sapiens, UniProt Q13093) (assay: Inhibition of human plasma Lp-PLA2 using 2- thio-PAF as substrate incubated for 20 mins prior to substrate addition measured after 1 hr).
T1 sequence (Q13093 whole entry): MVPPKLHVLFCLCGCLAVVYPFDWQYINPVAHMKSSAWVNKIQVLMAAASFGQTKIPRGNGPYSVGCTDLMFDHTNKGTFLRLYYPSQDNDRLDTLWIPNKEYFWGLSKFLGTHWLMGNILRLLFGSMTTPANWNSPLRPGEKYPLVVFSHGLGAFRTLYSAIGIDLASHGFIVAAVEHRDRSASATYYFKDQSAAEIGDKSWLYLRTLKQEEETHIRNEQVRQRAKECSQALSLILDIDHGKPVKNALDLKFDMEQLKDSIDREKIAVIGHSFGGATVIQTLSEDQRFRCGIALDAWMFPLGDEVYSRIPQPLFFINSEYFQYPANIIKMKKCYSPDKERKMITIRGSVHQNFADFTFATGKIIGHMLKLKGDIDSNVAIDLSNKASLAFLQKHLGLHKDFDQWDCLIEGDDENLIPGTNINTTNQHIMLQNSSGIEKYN

| IC50 [µM] | SMILES |
| --- | --- |
| > 100 | COc1cc(NS(=O)(=O)c2ccc(C)cc2)c2ncccc2c1 |
| > 100 | CCOC(=O)COc1cc(NS(=O)(=O)c2ccc(C)cc2)c2nc(C)ccc2c1 |
| > 100 | CS(=O)(=O)Nc1cccc2c(O)cc(C(=O)NC3CCCCCCCCCCCCC3)nc12 |
